Laboratory results published in EP1652839A2, “Drug efflux pump inhibitor” (priority 1999, dated 2001).

System: Pseudomonas aeruginosa PAM 1723 strain highly expressing the drug efflux pump
Assay: Effect of combinational use with an antimicrobial agent on multidrug resistant Pseudomonas aeruginosa (broth culture, transmittance and turbidity readout)
Type: cell-based
Conditions: minimum concentration of compound required to enhance antibacterial activity, MHB, 1 × 10^6 CFU/ml; for Combination with AZT: azthreonam (AZT) at 1/8 or less of the minimum inhibitory concentration, combinational use for 18 hours; for Combination with LVFX: levofloxacin (LVFX) at 1/8 or less of the minimum inhibitory concentration, combinational use for 7.5 hours
From the text: Test Example 1: Effect of combinational use with an antimicrobial agent on multidrug resistant Pseudomonas aeruginosa
As multidrug resistant Pseudomonas aeruginosa, Pseudomonas aeruginosa PAM 1723 strain highly expressing the drug efflux pump was used. As antimicrobial drugs for the combinational uses, levofloxacin (LVFX) as a quinolone antibacterial agent and azthreonam (AZT) as a monobactam antibiotic were used.
Each of the compounds shown in Table 1 with Example No., which falls within the compounds of the present invention, was subjected to the measurement of its minimum concentration (µg/ml) that was required to enhance the antibacterial activity of the antibacterial agent when the test compound was used in combination with the antibacterial drug applied at a concentration of 1/4, or 1/8 or less of the minimum inhibitory concentration against the PAM 1723 strain. […] As for levofloxacin, effects were indicated as combinational uses for 7.5 hours, and as for azthreonam, effects as combinational uses for 18 hours was indicated. The Müller-Hinton broth (MHB, Difco) was used as a medium, and the inoculated amount of the bacteria was 1 × 10^6 CFU/ml. Effects were determined by optically measuring the transmittance of the bacterial culture with time, and visually observing the turbidity of the medium.

Row | SMILES | Combination with AZT [µg/mL] | Combination with LVFX
1 | O=C(Cc1ccccc1C(=O)O)Nc1cccc(/C=C/c2nc(-c3ccccc3)cs2)c1 [Example 1, 2-(2-Oxo-2-3-[(E)-2-(4-phenyl-1,3-thiazol-2-yl)-1-ethenyl]anilinoethyl)-benzoic acid] | 1.25 | <=0.63 µg/ml
2 | O=C(Cc1ccccc1C(=O)O)Nc1cccc(OCc2ccc3ccccc3n2)c1 [Example 2, 2-{2-Oxo-2-[3-(2-quinolylmethoxy)anilino]ethyl}benzoic acid] | 5 | 20 µg/mL
3 | CC(C)c1nc(/C=C/c2cccc(NC(=O)Cc3ccccc3C(=O)O)c2)sc1Cl [Example 3, 2-(2-3-[(E)-2-(4-Isopropyl-5-chloro-1,3-thiazol-2-yl)-1-ethenyl]anilino-2-oxoethyl)benzoic acid] |  | <=2.5 µg/ml
4 | O=C(Cc1ccccc1C(=O)O)Nc1cccc(/C=C/c2ccc(-c3ccccc3)o2)c1 [Example 4, 2-[2-Oxo-2-{3-[(E)-(5-phenyl-2-furyl)-1-ethenyl]anilino}ethyl]benzoic acid] | 2.5 | 10 µg/mL
5 | CC(C)c1nc(/C=C/c2cccc(NC(=O)Cc3ccccc3C(=O)O)c2)sc1N [Example 5, 2-{2-[3-((E)-2-{5-Amino-4-isopropyl-1,3-thiazol-2-yl}-1-ethenyl)amino]-2-oxoethyl}benzoic acid] | 20 | 10 µg/mL
6 | O=C(Cc1ccccc1C(=O)O)Nc1cccc(/C=C/c2nc3cccnc3s2)c1 [Example 6, 2-(2-Oxo-2-{3-[(E)-2-(pyrido[3,2-d][1,3]thiazol-2-yl)-1-ethenyl]anilino}ethyl)benzoic acid] | 5 | 20 µg/mL
7 | O=C(Cc1ccccc1C(=O)O)Nc1cccc(/C=C/c2nc3ccccc3o2)c1 [Example 7, 2-(2-3-[(E)-2-(1,3-Benzoxazol-2-yl)-1-ethenyl]anilino-2-oxoethyl)benzoic acid] | 5 | 2.5 µg/mL
8 | O=C(Cc1ccccc1C(=O)O)Nc1cccc(/C=C/c2nc(-c3ccncc3)cs2)c1 [Example 8, 2-[2-Oxo-2-(3-(E)-2-[4-(4-pyridyl)-1,3-thiazol-2-yl]-1-ethylanilino)ethyl]-benzoic acid] | 2.5 | 0.63 µg/mL
9 | CC(C)c1cccc(COc2cccc(NC(=O)Cc3ccccc3C(=O)O)c2)n1 [Example 9, 2-(2-3-[(6-Isopropyl-2-pyridyl)methoxy]anilino-2-oxoethyl)benzoic acid] | 2.5 | 0.63 µg/mL
10 | O=C(Cc1ccccc1C(=O)O)Nc1cccc(CCc2nc(-c3ccccc3)cs2)c1 [Example 10, 2-(2-Oxo-2-{3-[2-(4-phenyl-1,3-thiazol-2-yl)ethyl]anilino}ethyl)benzoic acid] | 2.5 | 20 µg/mL
11 | O=C(Cc1ccccc1C(=O)O)Nc1cccc(C2CC2c2nc(-c3ccccc3)cs2)c1 (centres unmarked) [Example 11, 2-(2-Oxo-2-{3-[2-(4-phenyl-1,3-thiazol-2-yl)cyclopropyl]anilino}ethyl)benzoic acid] | 40 | >40 µg/mL
12 | O=C(Cc1ccccc1C(=O)O)Nc1cccc(C(=O)Nc2nc(-c3ccccc3)cs2)c1 [Example 12, 2-(2-Oxo-2-(3-((4-phenyl-1,3-thiazol-2-yl)amino)carbonylanilino)ethyl)-benzoic acid] | 20 | >40 µg/mL
13 | CC(C)c1nsc(COc2cc(NC(=O)Cc3ccccc3C(=O)O)c(F)cc2F)n1 [Example 13, 2-(2-2,4-Difluoro-5-[(3-isopropyl-1,2,4-thiadiazol-5-yl)methoxy]anilino-2-oxoethyl)benzoic acid] | 1.25 | <=0.63 µg/ml
14 | CC(C)c1csc(COc2cc(N)cc(NC(=O)Cc3ccccc3C(=O)O)c2)n1 [Example 14, 2-(3-Amino-5-((4-isopropyl-1,3-thiazol-2-yl)methoxy)anilino-2-oxoethyl)-benzoic acid] | 10 | 10 µg/mL
15 | CC(C)c1csc(/C=C/c2cncc(NC(=O)[C@H]3OC(C)(C)O[C@@H]3C(=O)O)c2)n1 [Example 15, (4S,5S)-5-[(5-[(E)-2-(4-Isopropyl-1,3-thiazol-2-yl)-1-ethenyl]-3-pyridyl-amino)carbonyl]-2,2-dimethyl-1,3-dioxolane-4-carboxylic acid] | 40 | 20 µg/mL
16 | COC(=O)c1cc(NC(=O)Cc2ccccc2C(=O)O)cc(OCc2nc(C(C)C)cs2)c1 [Example 16, 2-(3-((4-Isopropyl-1,3-thiazol-2-yl)methoxy)-5-(methoxycarbonyl)anilino)-2-oxoethylbenzoic acid] | 160 | 160 µg/mL
17 | CC(C)c1csc(/C=C/c2cncc(NC(=O)Cc3ccccc3C(=O)O)c2)n1 [Example 17, 2-[2-(5-[(E)-2-(4-Isopropyl-1,3-thiazol-2-yl)-1-ethenyl]-3-pyridylamino)-2-oxoethyl]benzoic acid] | 1.25 | 0.63 µg/mL
18 | CC(C)c1csc(/C=C/c2cccc(NC(=O)Cc3ccccc3C(=O)O)n2)n1 [Example 18, 2-[2-(6-[(E)-2-(4-Isopropyl-1,3-thiazol-2-yl)-1-ethenyl]-2-pyridylamino)-2-oxoethyl]benzoic acid] | 20 | 10 µg/mL
